Experimental data: patent US10123993B2, “Cyclic ureas as inhibitors of rock” (BRISTOL-MYERS SQUIBB COMPANY, priority 2015, dated 2018)

Target: ROCK2 (Homo sapiens, UniProt O75116)
Experiment: ROCK2 kinase inhibition assay (Caliper LABCHIP, FITC peptide substrate)
Format: biochemical
Settings: 5 μM ATP, 1.5 μM peptide substrate; value ranges
Outline: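 Rho kinase with 5 μM ATP and 1.5 μM FITC-AHA-AKRRRLSSLRA-OH peptide in HEPES pH 7.5, 20 mM MgCl2, 0.015% Brij-35, 4 mM DTT, DMSO <2%. EDTA stop; phospho and non-phospho peptide separated on LabChip. IC50 from dose-response fit.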

Sequence of ROCK2 (O75116 whole entry, species assumed): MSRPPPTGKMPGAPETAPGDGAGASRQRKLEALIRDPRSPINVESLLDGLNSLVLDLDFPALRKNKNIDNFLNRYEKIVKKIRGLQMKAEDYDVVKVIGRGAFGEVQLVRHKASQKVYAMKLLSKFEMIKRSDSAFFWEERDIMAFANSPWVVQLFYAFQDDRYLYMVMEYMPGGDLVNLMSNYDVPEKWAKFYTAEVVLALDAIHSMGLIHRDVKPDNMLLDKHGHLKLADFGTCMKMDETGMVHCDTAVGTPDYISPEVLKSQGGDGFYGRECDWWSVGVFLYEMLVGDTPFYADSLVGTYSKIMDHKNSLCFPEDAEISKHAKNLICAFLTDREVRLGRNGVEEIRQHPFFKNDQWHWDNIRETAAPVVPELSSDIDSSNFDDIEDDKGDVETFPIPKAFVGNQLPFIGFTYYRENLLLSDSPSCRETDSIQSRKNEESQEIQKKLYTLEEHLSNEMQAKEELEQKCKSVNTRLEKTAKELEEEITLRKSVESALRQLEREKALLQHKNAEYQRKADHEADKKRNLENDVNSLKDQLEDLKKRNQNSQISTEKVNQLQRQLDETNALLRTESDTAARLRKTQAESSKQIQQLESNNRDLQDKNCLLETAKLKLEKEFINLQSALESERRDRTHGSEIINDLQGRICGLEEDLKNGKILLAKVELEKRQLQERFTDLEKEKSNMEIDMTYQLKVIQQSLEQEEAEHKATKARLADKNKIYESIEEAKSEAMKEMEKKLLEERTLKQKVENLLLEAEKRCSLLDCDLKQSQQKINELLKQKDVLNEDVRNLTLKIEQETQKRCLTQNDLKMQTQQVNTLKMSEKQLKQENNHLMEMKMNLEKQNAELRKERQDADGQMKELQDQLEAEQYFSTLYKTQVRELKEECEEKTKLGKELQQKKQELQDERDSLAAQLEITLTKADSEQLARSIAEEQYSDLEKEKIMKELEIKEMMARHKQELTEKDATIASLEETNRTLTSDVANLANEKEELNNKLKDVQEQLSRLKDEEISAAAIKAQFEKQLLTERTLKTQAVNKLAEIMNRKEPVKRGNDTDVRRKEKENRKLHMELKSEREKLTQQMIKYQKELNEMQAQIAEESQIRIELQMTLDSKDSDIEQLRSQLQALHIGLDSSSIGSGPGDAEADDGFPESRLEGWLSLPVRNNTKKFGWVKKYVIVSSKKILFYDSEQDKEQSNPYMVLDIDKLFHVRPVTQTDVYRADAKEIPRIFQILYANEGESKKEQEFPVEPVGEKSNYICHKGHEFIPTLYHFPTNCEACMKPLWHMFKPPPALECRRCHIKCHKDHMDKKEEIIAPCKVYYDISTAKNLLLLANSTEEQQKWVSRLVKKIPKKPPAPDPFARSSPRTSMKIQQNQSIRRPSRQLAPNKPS

Row | SMILES | IC50 [nM]
1 | CCc1cc(-n2ccn(C(C)c3cccc(OC)c3)c2=O)ccc1-c1cn[nH]c1 (single isomer, unassigned) [Example 353, 1-(3-ethyl-4-(1H-pyrazol-4-yl)phenyl)-3-(1-(3-methoxyphenyl)ethyl)-1H-imidazol-2(3H)-one] | 2.1 to 20
2 | COc1cccc(C(C)n2ccn(-c3ccc(-c4cn[nH]c4)cn3)c2=O)c1 (single isomer, unassigned) [Example 354, 1-(5-(1H-pyrazol-4-yl)pyridin-2-yl)-3-(1-(3-methoxyphenyl)ethyl)-1H-imidazol-2(3H)-one] | 20.1 to 200
3 | COc1cccc(C(C)n2ccn(-c3ccc(-c4cn[nH]c4)cn3)c2=O)c1 (single isomer, unassigned) [Example 355, 1-(5-(1H-pyrazol-4-yl)pyridin-2-yl)-3-(1-(3-methoxyphenyl)ethyl)-1H-imidazol-2(3H)-one] | < 2
4 | CC(c1cccc(OCC2CC2)c1)n1ccn(-c2ccc(-c3cn[nH]c3)cc2)c1=O (single isomer, unassigned) [Example 356, 1-(4-(1H-pyrazol-4-yl)phenyl)-3-(1-(3-(cyclopropylmethoxy)phenyl)ethyl)-1H-imidazol-2(3H)-one] | 200 to 2000
5 | CC(c1cccc(OCC2CC2)c1)n1ccn(-c2ccc(-c3cn[nH]c3)cc2)c1=O (single isomer, unassigned) [Example 357, 1-(4-(1H-pyrazol-4-yl)phenyl)-3-(1-(3-(cyclopropylmethoxy)phenyl)ethyl)-1H-imidazol-2(3H)-one] | 20.1 to 200
6 | CCc1cc(-n2ccn(C(CO)c3cccc(OC)c3)c2=O)ccc1-c1cn[nH]c1 (single isomer, unassigned) [Example 358, 1-(3-ethyl-4-(1H-pyrazol-4-yl)phenyl)-3-(2-hydroxy-1-(3-methoxyphenyl)ethyl)-1H-imidazol-2(3H)-one] | 200 to 2000
7 | CCc1cc(-n2ccn(C(CO)c3cccc(OC)c3)c2=O)ccc1-c1cn[nH]c1 (single isomer, unassigned) [Example 359, 1-(3-ethyl-4-(1H-pyrazol-4-yl)phenyl)-3-(2-hydroxy-1-(3-methoxyphenyl)ethyl)-1H-imidazol-2(3H)-one] | 20.1 to 200
8 | COc1cccc(C(CO)n2ccn(-c3ccc(-c4cn[nH]c4)c(OC)c3)c2=O)c1 (single isomer, unassigned) [Example 360, 1-(2-hydroxy-1-(3-methoxyphenyl)ethyl)-3-(3-methoxy-4-(1H-pyrazol-4-yl)phenyl)-1H-imidazol-2(3H)-one] | 200 to 2000
9 | COc1cccc(C(CO)n2ccn(-c3ccc(-c4cn[nH]c4)c(OC)c3)c2=O)c1 (single isomer, unassigned) [Example 361, 1-(2-hydroxy-1-(3-methoxyphenyl)ethyl)-3-(3-methoxy-4-(1H-pyrazol-4-yl)phenyl)-1H-imidazol-2(3H)-one] | 2.1 to 20
10 | CCc1nc(-n2ccn(C(C)c3cc(F)cc(OC)c3)c2=O)ccc1-c1cn[nH]c1 (single isomer, unassigned) [Example 362, 1-(6-ethyl-5-(1H-pyrazol-4-yl)pyridin-2-yl)-3-(1-(3-fluoro-5-methoxyphenyl)ethyl)-1H-imidazol-2(3H)-one] | < 2
11 | CCc1nc(-n2ccn(C(C)c3cc(F)cc(OC)c3)c2=O)ccc1-c1cn[nH]c1 (single isomer, unassigned) [Example 363, 1-(6-ethyl-5-(1H-pyrazol-4-yl)pyridin-2-yl)-3-(1-(3-fluoro-5-methoxyphenyl)ethyl)-1H-imidazol-2(3H)-one] | 200 to 2000
12 | CCOc1cccc(C(C)n2ccn(-c3ccc(-c4cn[nH]c4)c(CC)n3)c2=O)c1 (single isomer, unassigned) [Example 364, 1-(1-(3-ethoxyphenyl)ethyl)-3-(6-ethyl-5-(1H-pyrazol-4-yl)pyridin-2-yl)-1H-imidazol-2(3H)-one] | 20.1 to 200
13 | CCOc1cccc(C(C)n2ccn(-c3ccc(-c4cn[nH]c4)c(CC)n3)c2=O)c1 (single isomer, unassigned) [Example 365, 1-(1-(3-ethoxyphenyl)ethyl)-3-(6-ethyl-5-(1H-pyrazol-4-yl)pyridin-2-yl)-1H-imidazol-2(3H)-one] | 200 to 2000
14 | COc1cc(F)cc(C(C)n2ccn(-c3ccc(-c4cn[nH]c4)cc3)c2=O)c1 (single isomer, unassigned) [Example 366, 1-(4-(1H-pyrazol-4-yl)phenyl)-3-(1-(3-fluoro-5-methoxyphenyl)ethyl)-1H-imidazol-2(3H)-one] | < 2
15 | COc1cc(F)cc(C(C)n2ccn(-c3ccc(-c4cn[nH]c4)cc3)c2=O)c1 (single isomer, unassigned) [Example 367, 1-(4-(1H-pyrazol-4-yl)phenyl)-3-(1-(3-fluoro-5-methoxyphenyl)ethyl)-1H-imidazol-2(3H)-one] | 20.1 to 200
16 | CCOc1cccc(C(C)n2ccn(-c3ccc(-c4cn[nH]c4)cc3)c2=O)c1 (single isomer, unassigned) [Example 368, 1-(4-(1H-pyrazol-4-yl)phenyl)-3-(1-(3-ethoxyphenyl)ethyl)-1H-imidazol-2(3H)-one] | 200 to 2000

Row | SMILES | IC50 [nM]
17 | CCOc1cccc(C(C)n2ccn(-c3ccc(-c4cn[nH]c4)cc3)c2=O)c1 (single isomer, unassigned) [Example 369, 1-(4-(1H-pyrazol-4-yl)phenyl)-3-(1-(3-ethoxyphenyl)ethyl)-1H-imidazol-2(3H)-one] | 2.1 to 20
18 | CCOc1cccc(C(C)n2ccn(-c3ccc(-c4cn[nH]c4)cn3)c2=O)c1 (single isomer, unassigned) [Example 370, 1-(5-(1H-pyrazol-4-yl)pyridin-2-yl)-3-(1-(3-ethoxyphenyl)ethyl)-1H-imidazol-2(3H)-one] | 2.1 to 20
19 | CCOc1cccc(C(C)n2ccn(-c3ccc(-c4cn[nH]c4)cn3)c2=O)c1 (single isomer, unassigned) [Example 371, 1-(5-(1H-pyrazol-4-yl)pyridin-2-yl)-3-(1-(3-ethoxyphenyl)ethyl)-1H-imidazol-2(3H)-one] | 20.1 to 200
20 | CCc1nc(-n2ccn(C(C)c3cccc(OCC4CC4)c3)c2=O)ccc1-c1cn[nH]c1 (single isomer, unassigned) [Example 372, 1-(1-(3-(cyclopropylmethoxy)phenyl)ethyl)-3-(6-ethyl-5-(1H-pyrazol-4-yl)pyridin-2-yl)-1H-imidazol-2(3H)-one] | 20.1 to 200
21 | COc1cccc(C(C)n2ccn(-c3ccc(-c4ccncc4F)cc3)c2=O)c1 (single isomer, unassigned) [Example 387, 1-(4-(3-fluoropyridin-4-yl)phenyl)-3-(1-(3-methoxyphenyl)ethyl)-1H-imidazol-2(3H)-one] | 20.1 to 200
22 | CCc1nc(-n2ccn(C(C)c3ccc(F)c(OC)c3)c2=O)ccc1-c1cn[nH]c1 (single isomer, unassigned) [Example 388, 1-(6-ethyl-5-(1H-pyrazol-4-yl)pyridin-2-yl)-3-(1-(4-fluoro-3-methoxyphenyl)ethyl)-1H-imidazol-2(3H)-one] | 2.1 to 20
23 | COc1cc(C(C)n2ccn(-c3ccc(-c4cn[nH]c4)c(OC)n3)c2=O)ccc1F (single isomer, unassigned) [Example 389, 1-(1-(4-fluoro-3-methoxyphenyl)ethyl)-3-(6-methoxy-5-(1H-pyrazol-4-yl)pyridin-2-yl)-1H-imidazol-2(3H)-one] | < 2
24 | COc1cc(C(C)n2ccn(-c3ccc(-c4cn[nH]c4)c(OC)n3)c2=O)ccc1F (single isomer, unassigned) [Example 390, 1-(1-(4-fluoro-3-methoxyphenyl)ethyl)-3-(6-methoxy-5-(1H-pyrazol-4-yl)pyridin-2-yl)-1H-imidazol-2(3H)-one] | 20.1 to 200
25 | COc1cc(C(C)n2ccn(-c3ccc(-c4cn[nH]c4)cc3)c2=O)ccc1F (single isomer, unassigned) [Example 391, 1-(4-(1H-pyrazol-4-yl)phenyl)-3-(1-(4-fluoro-3-methoxyphenyl)ethyl)-1H-imidazol-2(3H)-one] | 2.1 to 20
26 | COc1cc(C(C)n2ccn(-c3ccc(-c4cn[nH]c4)cc3)c2=O)ccc1F (single isomer, unassigned) [Example 392, 1-(4-(1H-pyrazol-4-yl)phenyl)-3-(1-(4-fluoro-3-methoxyphenyl)ethyl)-1H-imidazol-2(3H)-one] | 200 to 2000
27 | COc1cc(F)cc(C(C)n2ccn(-c3ccc(-c4cn[nH]c4)cn3)c2=O)c1 (single isomer, unassigned) [Example 393, 1-(5-(1H-pyrazol-4-yl)pyridin-2-yl)-3-(1-(3-fluoro-5-methoxyphenyl)ethyl)-1H-imidazol-2(3H)-one] | 2.1 to 20
28 | COc1cc(F)cc(C(C)n2ccn(-c3ccc(-c4cn[nH]c4)cn3)c2=O)c1 (single isomer, unassigned) [Example 394, 1-(5-(1H-pyrazol-4-yl)pyridin-2-yl)-3-(1-(3-fluoro-5-methoxyphenyl)ethyl)-1H-imidazol-2(3H)-one] | 20.1 to 200
29 | COc1cc(F)cc(C(C)n2ccn(-c3ccc(-c4cn[nH]c4)c(OC)n3)c2=O)c1 (single isomer, unassigned) [Example 397, 1-(1-(3-fluoro-5-methoxyphenyl)ethyl)-3-(6-methoxy-5-(1H-pyrazol-4-yl)pyridin-2-yl)-1H-imidazol-2(3H)-one] | < 2
30 | COc1cc(F)cc(C(C)n2ccn(-c3ccc(-c4cn[nH]c4)c(OC)n3)c2=O)c1 (single isomer, unassigned) [Example 398, 1-(1-(3-fluoro-5-methoxyphenyl)ethyl)-3-(6-methoxy-5-(1H-pyrazol-4-yl)pyridin-2-yl)-1H-imidazol-2(3H)-one] | 2.1 to 20
31 | COc1cccc(C(C)n2ccn(-c3ccc(-c4ccnc(N)n4)cc3)c2=O)c1 (single isomer, unassigned) [Example 399, 1-(4-(2-aminopyrimidin-4-yl)phenyl)-3-(1-(3-methoxyphenyl)ethyl)-1H-imidazol-2(3H)-one] | 2.1 to 20
32 | COc1cccc(C(C)n2ccn(-c3ccc(-c4cn[nH]c4)c(OC)n3)c2=O)c1 (single isomer, unassigned) [Example 400, 1-(6-methoxy-5-(1H-pyrazol-4-yl)pyridin-2-yl)-3-(1-(3-methoxyphenyl)ethyl)-1H-imidazol-2(3H)-one] | < 2
